# Test results: publication PMC4131897 (Biochemistry, 2014)
# Residue numbers refer to the chain shown, from its start.
# Columns and labels:
# Assay in all cases: intrinsic tryptophan fluorescence quenching
# Format in all cases: binding
# [1] = target: T1, BjPutA (proline utilization A) (Bradyrhizobium diazoefficiens, UniProt Q89E26, S607Y)
# T1 sequence (Q89E26 1-999 S607Y): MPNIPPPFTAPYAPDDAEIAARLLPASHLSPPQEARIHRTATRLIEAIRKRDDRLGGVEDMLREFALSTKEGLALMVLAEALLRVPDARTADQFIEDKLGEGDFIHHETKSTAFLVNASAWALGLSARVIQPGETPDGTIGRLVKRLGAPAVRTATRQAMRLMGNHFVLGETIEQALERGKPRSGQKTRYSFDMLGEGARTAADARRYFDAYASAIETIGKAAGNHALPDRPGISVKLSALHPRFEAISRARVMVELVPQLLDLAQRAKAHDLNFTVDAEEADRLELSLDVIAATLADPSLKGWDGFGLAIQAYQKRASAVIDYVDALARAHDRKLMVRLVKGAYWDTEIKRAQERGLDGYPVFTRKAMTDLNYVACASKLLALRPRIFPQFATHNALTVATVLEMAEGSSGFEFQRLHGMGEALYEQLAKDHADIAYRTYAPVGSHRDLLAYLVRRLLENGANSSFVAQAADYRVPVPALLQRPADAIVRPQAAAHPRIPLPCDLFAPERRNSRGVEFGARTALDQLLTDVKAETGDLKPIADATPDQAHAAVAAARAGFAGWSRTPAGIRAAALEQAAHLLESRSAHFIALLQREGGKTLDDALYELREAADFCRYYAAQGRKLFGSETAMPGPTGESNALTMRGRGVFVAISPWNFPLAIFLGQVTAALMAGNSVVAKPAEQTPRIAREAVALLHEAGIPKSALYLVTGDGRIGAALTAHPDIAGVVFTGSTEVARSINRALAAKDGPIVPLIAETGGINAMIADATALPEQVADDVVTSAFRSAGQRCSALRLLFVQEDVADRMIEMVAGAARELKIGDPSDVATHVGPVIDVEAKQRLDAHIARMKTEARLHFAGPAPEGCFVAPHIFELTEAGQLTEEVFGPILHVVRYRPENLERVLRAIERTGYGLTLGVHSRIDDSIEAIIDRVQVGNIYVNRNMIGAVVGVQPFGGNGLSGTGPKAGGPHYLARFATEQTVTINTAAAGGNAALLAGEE
# [2] = target: T2, BjPutA (proline utilization A) (Bradyrhizobium diazoefficiens, UniProt Q89E26, D779Y)
# T2 sequence (Q89E26 1-999 D779Y): T1 sequence (Q89E26 1-999 S607Y) with Y607S, D779Y
# [3] = target: T3, BjPutA (proline utilization A) (Bradyrhizobium diazoefficiens, UniProt Q89E26, D778Y)
# T3 sequence (Q89E26 1-999 D778Y): T1 sequence (Q89E26 1-999 S607Y) with Y607S, D778Y
compound,measurement,setting,value
NC(=O)c1ccc[n+]([C@@H]2O[C@H](COP(=O)(O)OP(=O)(O)OC[C@H]3O[C@@H](n4cnc5c(N)ncnc54)[C@H](O)[C@@H]3O)[C@@H](O)[C@H]2O)c1 [NAD^+],Kd,[1],1000 ± 40 nM
same,Kd,[2],650 ± 40 nM
same,Kd,[3],670 ± 40 nM
